Results from patent US20160002204A1 (Board of Regents, The University of Texas System, priority 2014, published 2016).

Key:
[1] = target: T1, GLS1 (purified recombinant human GAC) (Homo sapiens, UniProt O94925); experiment: GLS1 enzymatic activity assay (dual-coupled, Amplex UltraRed/resorufin); format: biochemical
T1 sequence (O94925 55-598 isoform O94925-3 limits assumed): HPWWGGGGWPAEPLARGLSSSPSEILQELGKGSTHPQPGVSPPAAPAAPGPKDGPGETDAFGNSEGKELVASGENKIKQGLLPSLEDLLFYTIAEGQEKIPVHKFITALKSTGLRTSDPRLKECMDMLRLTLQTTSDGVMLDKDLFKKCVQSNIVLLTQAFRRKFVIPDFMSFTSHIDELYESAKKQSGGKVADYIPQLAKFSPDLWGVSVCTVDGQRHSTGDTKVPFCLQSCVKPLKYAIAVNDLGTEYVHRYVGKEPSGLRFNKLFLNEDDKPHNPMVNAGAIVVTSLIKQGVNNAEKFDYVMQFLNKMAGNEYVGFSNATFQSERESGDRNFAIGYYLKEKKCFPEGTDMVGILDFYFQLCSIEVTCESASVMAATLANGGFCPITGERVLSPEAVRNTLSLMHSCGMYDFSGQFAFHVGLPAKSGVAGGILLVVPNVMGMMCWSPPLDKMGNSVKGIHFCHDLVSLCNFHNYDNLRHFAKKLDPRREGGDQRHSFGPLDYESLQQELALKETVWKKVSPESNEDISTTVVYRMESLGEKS
Summary of the method: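 GAC activity measured by coupling glutamate to glutamate oxidase and HRP, generating resorufin from Amplex UltraRed. Enzyme (2 nM) preincubated with 50 mM potassium phosphate 10 min at room temperature, then inhibitor 10 min; 1 mM glutamine substrate, 1% DMSO. Fluorescence 530/590 nm, kinetic or 20-min endpoint; IC50 from four-parameter logistic fit.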

A549 cells = experiment: A549 proliferation (viability) assay, Cell Titer Fluor, 72 hours; format: cell-based; conditions: Homo sapiens
Summary of the method: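 Seed A549 at 1000 cells/well and culture 24 h. Add compound (final DMSO 0.5%) and incubate 72 h at 37 °C. Add Cell Titer Fluor, mix 15 min, incubate 30 min, read fluorescence and fit EC50 by four-parameter logistic.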

| Structure (SMILES) | IC50 [1] [nM] | EC50 (A549 cells) [nM] |
| --- | --- | --- |
| O=C(Nc1ccn(CCC(F)Cn2cc(C(=O)NCc3cccc(OC(F)(F)F)c3)nn2)c(=O)c1F)C(=O)N1CCCC(O)C1 (stereo not drawn) [Example 426, 1-(2-fluoro-4-{3-fluoro-4-[2-(3-hydroxypiperidin-1-yl)-2-oxoacetamido]-2-oxo-1,2-dihydropyridin-1-yl}butyl)-N-{[3-(trifluoromethoxy)phenyl]methyl}-1H-1,2,3-triazole-4-carboxamide] | < 100 | 500 to 5000 |
| O=C(Cc1ccccc1)Nc1ccn(CCC(F)Cn2cc(C(=O)NCc3ncccc3F)nn2)c(=O)c1 (stereo not drawn) [Example 151, 1-{2-fluoro-4-[2-oxo-4-(2-phenylacetamido)-1,2-dihydropyridin-1-yl]butyl}-N-[(3-fluoropyridin-2-yl)methyl]-1H-1,2,3-triazole-4-carboxamide] | 100 to 500 | 500 to 5000 |
| O=C1CCC(CC(=O)Nc2ccn(CCCCn3cc(C(=O)NCc4cccc(OC(F)(F)F)c4)nn3)c(=O)c2)CC1 [Example 204, 1-(4-{2-oxo-4-[2-(4-oxocyclohexyl)acetamido]-1,2-dihydropyridin-1-yl}butyl)-N-{[3-(trifluoromethoxy)phenyl]methyl}-1H-1,2,3-triazole-4-carboxamide] | < 100 | 500 to 5000 |
| O=C(NCc1cc(C(F)(F)F)ccn1)c1cn(CC(F)CCn2ccc(NC(=O)[C@@H](O)c3ccccc3)c(F)c2=O)nn1 (stereo partly drawn) [Example 326, 1-(2-fluoro-4-{3-fluoro-4-[(2S)-2-hydroxy-2-phenylacetamido]-2-oxo-1,2-dihydropyridin-1-yl}butyl)-N-{[4-(trifluoromethyl)pyridin-2-yl]methyl}-1H-1,2,3-triazole-4-carboxamide] | < 100 | < 100 |
| O=C(Cc1ncc(Cl)cc1F)Nc1ccn(CCC(F)Cn2cc(C(=O)NCc3cccc(OC(F)(F)F)c3)nn2)c(=O)c1 (stereo not drawn) [Example 243, 1-(4-{4-[2-(5-chloro-3-fluoropyridin-2-yl)acetamido]-2-oxo-1,2-dihydropyridin-1-yl}-2-fluorobutyl)-N-{[3-(trifluoromethoxy)phenyl]methyl}-1H-1,2,3-triazole-4-carboxamide] | < 100 | 100 to 500 |
| CCN1CCC(CC(=O)Nc2ccn(CCCCn3cc(C(=O)NCc4cccc(C(F)(F)F)c4)nn3)c(=O)c2)CC1 [Example 156, 1-(4-{4-[2-(1-ethylpiperidin-4-yl)acetamido]-2-oxo-1,2-dihydropyridin-1-yl}butyl)-N-{[3-(trifluoromethyl)phenyl]methyl}-1H-1,2,3-triazole-4-carboxamide] | 100 to 500 | 500 to 5000 |
| COC1CCC(CC(=O)Nc2ccn(CCCCn3cc(C(=O)NCc4cccc(OC(F)(F)F)c4)nn3)c(=O)c2)CC1 (stereo not drawn) [Example 170, 1-(4-{4-[2-(4-methoxycyclohexyl)acetamido]-2-oxo-1,2-dihydropyridin-1-yl}butyl)-N-{[3-(trifluoromethoxy)phenyl]methyl}-1H-1,2,3-triazole-4-carboxamide] | < 100 | 100 to 500 |
| O=C(CC1CC1(F)F)Nc1ccn(CCCCn2cc(C(=O)NCc3cccc(OC(F)(F)F)c3)nn2)c(=O)c1 (stereo not drawn) [Example 168, 1-(4-{4-[2-(2,2-difluorocyclopropyl)acetamido]-2-oxo-1,2-dihydropyridin-1-yl}butyl)-N-{[3-(trifluoromethoxy)phenyl]methyl}-1H-1,2,3-triazole-4-carboxamide] | < 100 | 500 to 5000 |
| N#Cc1ccc(CNC(=O)c2cn(CC(F)CCn3ccc(NC(=O)Cc4ccccc4)c(F)c3=O)nn2)cn1 (stereo not drawn) [Example 380, N-[(6-cyanopyridin-3-yl)methyl]-1-{2-fluoro-4-[3-fluoro-2-oxo-4-(2-phenylacetamido)-1,2-dihydropyridin-1-yl]butyl}-1H-1,2,3-triazole-4-carboxamide] | 100 to 500 | 500 to 5000 |
| Cc1ccc(CNC(=O)c2cn(CC(F)CCn3ccc(NC(=O)C(=O)N4CCCCC4)c(F)c3=O)nn2)cn1 (stereo not drawn) [Example 412, 1-(2-fluoro-4-{3-fluoro-2-oxo-4-[2-oxo-2-(piperidin-1-yl)acetamido]-1,2-dihydropyridin-1-yl}butyl)-N-[(6-methylpyridin-3-yl)methyl]-1H-1,2,3-triazole-4-carboxamide] | 100 to 500 | 500 to 5000 |
| O=C(Cc1ccc(F)cc1F)Nc1ccn(CCC(F)Cn2cc(C(=O)NCc3cccc(OC(F)(F)F)c3)nn2)c(=O)c1F (stereo not drawn) [Example 334, 1-(4-{4-[2-(2,4-difluorophenyl)acetamido]-3-fluoro-2-oxo-1,2-dihydropyridin-1-yl}-2-fluorobutyl)-N-{[3-(trifluoromethoxy)phenyl]methyl}-1H-1,2,3-triazole-4-carboxamide] | < 100 | < 100 |
| O=C(Cc1ccccn1)Nc1ccn(CCCCn2cc(C(=O)NCc3cccc(OC(F)(F)F)c3)nn2)c(=O)c1 [Example 6, 1-(4-(2-oxo-4-(2-(pyridin-2-yl)acetamido)pyridin-1 (2H)-yl)butyl)-N-(3-(trifluoromethoxy)benzyl)-1H-1,2,3-triazole-4-carboxamide] | < 100 | 500 to 5000 |
| CC(C)(C)OC(=O)N1CCC(CC(=O)Nc2ccn(CCC(F)Cn3cc(C(=O)NCc4cccc(OC(F)(F)F)c4)nn3)c(=O)c2)C1 (stereo not drawn) [Example 221, tert-butyl 3-{[(1-{3-fluoro-4-[4-({[3-(trifluoromethoxy)phenyl]methyl}carbamoyl)-1H-1,2,3-triazol-1-yl]butyl}-2-oxo-1,2-dihydropyridin-4-yl)carbamoyl]methyl}pyrrolidine-1-carboxylate] | < 100 | < 100 |
| CC(C)NC(=O)Nc1ccn(CCCCc2ccc(NC(=O)Cc3ccccc3)nn2)c(=O)n1 [Example 87, N-{6-[4-(2-oxo-4-{[(propan-2-yl)carbamoyl]amino}-1,2-dihydropyrimidin-1-yl)butyl]pyridazin-3-yl}-2-phenylacetamide] | 500 to 5000 | > 5000 |
| Cc1ccc(CNC(=O)c2cn(CC(F)CCn3ccc(NC(=O)OC(C)(C)C)c(F)c3=O)nn2)cn1 (stereo not drawn) [Example 298, tert-butyl N-{3-fluoro-1-[3-fluoro-4-(4-{[(6-methylpyridin-3-yl)methyl]carbamoyl}-1H-1,2,3-triazol-1-yl)butyl]-2-oxo-1,2-dihydropyridin-4-yl}carbamate] | 100 to 500 | 500 to 5000 |
| CC(C)COC(=O)Nc1ccn(CCCCc2ccc(NC(=O)Cc3cccc(OC(F)(F)F)c3)nn2)c(=O)n1 [Example 104, 2-methylpropyl N-{2-oxo-1-[4-(6-{2-[3-(trifluoro-methoxy)phenyl]acetamido}pyridazin-3-yl)butyl]-1,2-dihydropyrimidin-4-yl}carbamate] | < 100 | < 100 |
| CO[C@H](C(=O)Nc1ccn(CC(F)CCn2cc(C(=O)NCc3cccc(OC(F)(F)F)c3)nn2)c(=O)c1F)c1ccccc1 (stereo partly drawn) [Example 309, 1-(3-fluoro-4-{3-fluoro-4-[(2S)-2-methoxy-2-phenylacetamido]-2-oxo-1,2-dihydropyridin-1-yl}butyl)-N-{[3-(trifluoromethoxy)phenyl]methyl}-1H-1,2,3-triazole-4-carboxamide] | 500 to 5000 | 500 to 5000 |
| Cc1ccc(CNC(=O)c2cn(CC(F)CCn3ccc(NC(=O)CC4CCCOC4)cc3=O)nn2)cn1 (stereo not drawn) [Example 196, 1-(2-fluoro-4-{4-[2-(oxan-3-yl)acetamido]-2-oxo-1,2-dihydropyridin-1-yl}butyl)-N-[(6-methylpyridin-3-yl)methyl]-1H-1,2,3-triazole-4-carboxamide] | < 100 | 500 to 5000 |
| CC(=O)OC(C(=O)Nc1ccn(CC[C@H](F)Cn2cc(C(=O)NCc3cc(C(F)(F)F)ccn3)nn2)c(=O)c1F)c1ccccc1 (stereo partly drawn) [Example 325, (S)-[(3-fluoro-1-{3-fluoro-4-[4-({[4-(trifluoromethyl)pyridin-2-yl]methyl}carbamoyl)-1H-1,2,3-triazol-1-yl]butyl}-2-oxo-1,2-dihydropyridin-4-yl)carbamoyl](phenyl)methyl acetate] | < 100 | < 100 |
| O=C(Cc1ccccc1)Nc1ccn(CCCCc2nnc(C(=O)NCc3cccc(OC(F)(F)F)c3)s2)c(=O)c1 [Example 438, 5-{4-[2-oxo-4-(2-phenylacetamido)-1,2-dihydropyridin-1-yl]butyl}-N-{[3-(trifluoromethoxy)phenyl]methyl}-1,3,4-thiadiazole-2-carboxamide] | < 100 | < 100 |
| O=C(Cc1ccc2ccccc2n1)Nc1ccn(CCC(F)Cn2cc(C(=O)NCc3cccc(OC(F)(F)F)c3)nn2)c(=O)c1 (stereo not drawn) [Example 253, 1-(2-fluoro-4-{2-oxo-4-[2-(quinolin-2-yl)acetamido]-1,2-dihydropyridin-1-yl}butyl)-N-{[3-(trifluoromethoxy)phenyl]methyl}-1H-1,2,3-triazole-4-carboxamide] | < 100 | 500 to 5000 |
